Measured values taken from patent publication US20260198493A1, “HYDRAZIDE COMPOUND AND AGRICULTURAL/HORTICULTURAL FUNGICIDE” (Nippon Soda Co., Ltd., priority 2022, published 2026).

What was measured:
Colletotrichum acutatum = test: Fungicidal effect test against fungi causing apple anthracnose; conditions: 96 h, read-out: growth inhibition ratio
Glomerella cingulata = test: Fungicidal effect test against fungi causing grape ripe rot disease; conditions: Colletotrichum gloeosporioides, 72 h, read-out: growth inhibition ratio
Fusarium graminearum = test: microbe, parasite or virus in culture; format: cell-based; conditions: 96 h, read-out: growth inhibition ratio
Botrytis cinerea [1] = format: cell-based; conditions: 120 h, 25 ppm by volume, Vogel medium, 20° C., five days, dark, read-out: growth inhibition ratio
Botrytis cinerea [2] = test: Control test of cucumber gray mold (sprayed young cucumber seedlings); format: in vivo; conditions: 96 h, four days after inoculation; for pest or weed control at 25 ppm: 25 ppm by mass spray; for pest or weed control at 125 ppm: 125 ppm by mass spray
Protocol: Then, the drug liquid was sprayed onto young cucumber seedlings cultivated in a nursery pot (variety “Jihai”-based, cotyledon stage), and then air-dried. […] They were left still in a moist room at 20° C. Four days after inoculation, leaves of the young cucumber seedlings were visually observed, and the control value was calculated from the lesion area ratio in accordance with the following equation. [formula]

[3] = test system: Erysiphe graminis f.sp.tritici; test: Control test of wheat powdery mildew disease (sprayed young wheat seedlings); format: in vivo; conditions: Blumeria graminis, 144 h, 125 ppm by mass spray, six days after inoculation
Venturia inaequalis = test: Control test of apple scab disease (sprayed young apple seedlings); format: in vivo; conditions: 125 ppm by mass spray, 12 to 14 days after inoculation

Cc1ccc(CNNC(=O)c2cc(C)nnc2Oc2cccc(C3CC3)c2F)c(C)c1 [b-1]
≥ 75%: inhibition of growth at 25 ppm (Colletotrichum acutatum) | inhibition of growth at 25 ppm (Glomerella cingulata) | inhibition of growth at 25 ppm (Fusarium graminearum) | inhibition of growth at 25 ppm (Botrytis cinerea [1])

Cc1cc(C(=O)NNCc2ccc(Cl)cc2Cl)c(Oc2cccc(C3CC3)c2F)nn1 [b-7]
≥ 75%: inhibition of growth at 25 ppm (Colletotrichum acutatum) | inhibition of growth at 25 ppm (Glomerella cingulata) | inhibition of growth at 25 ppm (Fusarium graminearum) | inhibition of growth at 25 ppm (Botrytis cinerea [1])

Cc1ccc(CNNC(=O)c2cc(C)ncc2Oc2cccc(C3CC3)c2F)c(C)c1 [b-8]
≥ 75%: inhibition of growth at 25 ppm (Colletotrichum acutatum) | inhibition of growth at 25 ppm (Glomerella cingulata) | inhibition of growth at 25 ppm (Fusarium graminearum) | inhibition of growth at 25 ppm (Botrytis cinerea [1])

CCc1cc(C(=O)NN(Cc2ccc(C)cc2C)C(=O)OC)c(Oc2cccc(C3CC3)c2F)nn1 [b-27]
≥ 75%: inhibition of growth at 25 ppm (Colletotrichum acutatum) | inhibition of growth at 25 ppm (Glomerella cingulata) | pest or weed control at 25 ppm (Botrytis cinerea [2]) | pest or weed control at 125 ppm (Botrytis cinerea [2]) | inhibition of growth at 25 ppm (Fusarium graminearum) | inhibition of growth at 25 ppm (Botrytis cinerea [1])

COC(=O)N(Cc1ccc(C)cc1C)NC(=O)c1cc(C)ncc1Oc1cccc(C2CC2)c1 [b-32]
≥ 75%: inhibition of growth at 25 ppm (Colletotrichum acutatum) | inhibition of growth at 25 ppm (Glomerella cingulata) | pest or weed control at 25 ppm (Botrytis cinerea [2]) | inhibition of growth at 25 ppm (Fusarium graminearum) | inhibition of growth at 25 ppm (Botrytis cinerea [1])

COC(=O)N(Cc1ccc(OC)cc1OC)NC(=O)c1cc(C)ncc1Oc1cccc(Br)c1 [b-87]
≥ 75%: inhibition of growth at 25 ppm (Colletotrichum acutatum) | inhibition of growth at 25 ppm (Glomerella cingulata) | inhibition of growth at 25 ppm (Fusarium graminearum) | inhibition of growth at 25 ppm (Botrytis cinerea [1])

COC(=O)N(Cc1ccc(C)cc1C)NC(=O)c1cc(C2CC2)ncc1Oc1cccc(C2CC2)c1F [b-116]
≥ 75%: inhibition of growth at 25 ppm (Colletotrichum acutatum) | inhibition of growth at 25 ppm (Glomerella cingulata) | pest or weed control at 25 ppm (Botrytis cinerea [2]) | inhibition of growth at 25 ppm (Fusarium graminearum) | inhibition of growth at 25 ppm (Botrytis cinerea [1])

COC(=O)N(Cc1ccc(C)cc1C)NC(=O)c1cc(C#N)ncc1Oc1cccc(C2CC2)c1F [b-119]
≥ 75%: inhibition of growth at 25 ppm (Colletotrichum acutatum) | inhibition of growth at 25 ppm (Glomerella cingulata) | pest or weed control at 25 ppm (Botrytis cinerea [2]) | inhibition of growth at 25 ppm (Fusarium graminearum) | inhibition of growth at 25 ppm (Botrytis cinerea [1])

COC(=O)N(Cc1ccc(F)cc1C)NC(=O)c1cc(C)nnc1Oc1cccc(C2CC2)c1F [b-121]
≥ 75%: inhibition of growth at 25 ppm (Colletotrichum acutatum) | inhibition of growth at 25 ppm (Glomerella cingulata) | pest or weed control at 25 ppm (Botrytis cinerea [2]) | pest or weed control at 125 ppm (Botrytis cinerea [2]) | pest or weed control at 125 ppm [3] | pest or weed control at 125 ppm (Venturia inaequalis) | inhibition of growth at 25 ppm (Botrytis cinerea [1])

COC(=O)N(Cc1ccc(N(C)C)cc1C)NC(=O)c1cc(C)ncc1Oc1cccc(C2CC2)c1F [b-126]
≥ 75%: inhibition of growth at 25 ppm (Colletotrichum acutatum) | inhibition of growth at 25 ppm (Glomerella cingulata) | pest or weed control at 125 ppm (Botrytis cinerea [2]) | inhibition of growth at 25 ppm (Fusarium graminearum) | inhibition of growth at 25 ppm (Botrytis cinerea [1])

COC(=O)N(Cc1ccc(C#N)cc1C)NC(=O)c1cc(C)ncc1Oc1cccc(C2CC2)c1F [b-128]
≥ 75%: inhibition of growth at 25 ppm (Colletotrichum acutatum) | inhibition of growth at 25 ppm (Glomerella cingulata) | inhibition of growth at 25 ppm (Fusarium graminearum) | inhibition of growth at 25 ppm (Botrytis cinerea [1])

COC(=O)N(Cc1ccc(C)cc1C)NC(=O)c1cc(C)nnc1Oc1cccc([N+](=O)[O-])c1 [b-135]
≥ 75%: inhibition of growth at 25 ppm (Colletotrichum acutatum) | inhibition of growth at 25 ppm (Glomerella cingulata) | pest or weed control at 25 ppm (Botrytis cinerea [2]) | inhibition of growth at 25 ppm (Fusarium graminearum) | inhibition of growth at 25 ppm (Botrytis cinerea [1])

COC(=O)N(Cc1ccc(C)cc1C)NC(=O)c1cc(C)nnc1Oc1ccccc1 [b-143]
≥ 75%: inhibition of growth at 25 ppm (Colletotrichum acutatum) | inhibition of growth at 25 ppm (Glomerella cingulata) | inhibition of growth at 25 ppm (Fusarium graminearum) | inhibition of growth at 25 ppm (Botrytis cinerea [1])

COC(=O)N(Cc1ccc(OC)cc1C)NC(=O)c1ccncc1Oc1cccc(C2CC2)c1F [b-151]
≥ 75%: inhibition of growth at 25 ppm (Colletotrichum acutatum) | inhibition of growth at 25 ppm (Glomerella cingulata) | pest or weed control at 25 ppm (Botrytis cinerea [2]) | pest or weed control at 125 ppm (Botrytis cinerea [2]) | pest or weed control at 125 ppm [3] | pest or weed control at 125 ppm (Venturia inaequalis) | inhibition of growth at 25 ppm (Botrytis cinerea [1])

COC(=O)N(Cc1ccc(OC(F)(F)F)cc1C)NC(=O)c1cc(C)nnc1Oc1cccc(C2CC2)c1F [b-158]
≥ 75%: inhibition of growth at 25 ppm (Colletotrichum acutatum) | inhibition of growth at 25 ppm (Glomerella cingulata) | pest or weed control at 25 ppm (Botrytis cinerea [2]) | pest or weed control at 125 ppm (Botrytis cinerea [2]) | pest or weed control at 125 ppm [3] | pest or weed control at 125 ppm (Venturia inaequalis) | inhibition of growth at 25 ppm (Botrytis cinerea [1])

COC(=O)N(Cc1cccc(C)c1)NC(=O)c1cc(C)nnc1Oc1cccc(C2CC2)c1F [b-159]
≥ 75%: inhibition of growth at 25 ppm (Colletotrichum acutatum) | inhibition of growth at 25 ppm (Glomerella cingulata) | pest or weed control at 25 ppm (Botrytis cinerea [2]) | pest or weed control at 125 ppm (Botrytis cinerea [2]) | pest or weed control at 125 ppm [3] | pest or weed control at 125 ppm (Venturia inaequalis) | inhibition of growth at 25 ppm (Botrytis cinerea [1])

COC(=O)N(Cc1ccc(C2CC2)cc1)NC(=O)c1cc(C)nnc1Oc1cccc(C2CC2)c1F [b-163]
≥ 75%: inhibition of growth at 25 ppm (Colletotrichum acutatum) | inhibition of growth at 25 ppm (Glomerella cingulata) | pest or weed control at 25 ppm (Botrytis cinerea [2]) | pest or weed control at 125 ppm (Botrytis cinerea [2]) | pest or weed control at 125 ppm [3] | pest or weed control at 125 ppm (Venturia inaequalis) | inhibition of growth at 25 ppm (Botrytis cinerea [1])

COC(=O)N(Cc1ccc(OC)cc1C)NC(=O)c1cc(C#N)ncc1Oc1cccc(C2CC2)c1F [b-167]
≥ 75%: inhibition of growth at 25 ppm (Colletotrichum acutatum) | inhibition of growth at 25 ppm (Glomerella cingulata) | inhibition of growth at 25 ppm (Fusarium graminearum) | inhibition of growth at 25 ppm (Botrytis cinerea [1])

COC(=O)N(Cc1ccc(C)cc1C)NC(=O)c1c(Oc2cccc(Cl)c2F)nnc2c1CCC2 [b-175]
≥ 75%: inhibition of growth at 25 ppm (Colletotrichum acutatum) | inhibition of growth at 25 ppm (Glomerella cingulata) | inhibition of growth at 25 ppm (Fusarium graminearum) | inhibition of growth at 25 ppm (Botrytis cinerea [1])

Cc1ccc(CN(NC(=O)c2cc(C)nnc2Oc2cccc(C3CC3)c2F)C(=O)OCc2ccccc2)c(C)c1 [b-182]
≥ 75%: inhibition of growth at 25 ppm (Colletotrichum acutatum) | inhibition of growth at 25 ppm (Glomerella cingulata) | pest or weed control at 25 ppm (Botrytis cinerea [2]) | pest or weed control at 125 ppm (Botrytis cinerea [2]) | pest or weed control at 125 ppm [3] | pest or weed control at 125 ppm (Venturia inaequalis) | inhibition of growth at 25 ppm (Botrytis cinerea [1])

Cc1ccc(CN(NC(=O)c2cc(C)nnc2Oc2cccc(C3CC3)c2F)C(=O)OCC2CC2)c(C)c1 [b-183]
≥ 75%: inhibition of growth at 25 ppm (Colletotrichum acutatum) | inhibition of growth at 25 ppm (Glomerella cingulata) | pest or weed control at 25 ppm (Botrytis cinerea [2]) | pest or weed control at 125 ppm (Botrytis cinerea [2]) | pest or weed control at 125 ppm [3] | pest or weed control at 125 ppm (Venturia inaequalis) | inhibition of growth at 25 ppm (Botrytis cinerea [1])

COC(=O)N(Cc1ccc(C)cc1C)NC(=O)c1ccnnc1Oc1cccc(C2CC2)c1F [b-189]
≥ 75%: inhibition of growth at 25 ppm (Colletotrichum acutatum) | inhibition of growth at 25 ppm (Glomerella cingulata) | pest or weed control at 25 ppm (Botrytis cinerea [2]) | pest or weed control at 125 ppm (Botrytis cinerea [2]) | pest or weed control at 125 ppm [3] | pest or weed control at 125 ppm (Venturia inaequalis) | inhibition of growth at 25 ppm (Botrytis cinerea [1])

COC(=O)N(Cc1ccc(C)cc1C)NC(=O)c1ccnnc1Oc1cccc(Cl)c1F [b-190]
≥ 75%: inhibition of growth at 25 ppm (Colletotrichum acutatum) | inhibition of growth at 25 ppm (Glomerella cingulata) | pest or weed control at 25 ppm (Botrytis cinerea [2]) | pest or weed control at 125 ppm (Botrytis cinerea [2]) | pest or weed control at 125 ppm [3] | pest or weed control at 125 ppm (Venturia inaequalis) | inhibition of growth at 25 ppm (Botrytis cinerea [1])

COC(=O)N(Cc1ccc(OC)cc1C)NC(=O)c1c(C)cnnc1Oc1cccc(C2CC2)c1F [b-192]
≥ 75%: inhibition of growth at 25 ppm (Colletotrichum acutatum) | inhibition of growth at 25 ppm (Glomerella cingulata) | pest or weed control at 25 ppm (Botrytis cinerea [2]) | pest or weed control at 125 ppm (Botrytis cinerea [2]) | pest or weed control at 125 ppm [3] | pest or weed control at 125 ppm (Venturia inaequalis) | inhibition of growth at 25 ppm (Botrytis cinerea [1])

COC(=O)N(Cc1ccc(C)cc1C)NC(=O)c1cc(SC)ncc1Oc1cccc(C2CC2)c1F [b-194]
≥ 75%: inhibition of growth at 25 ppm (Colletotrichum acutatum) | inhibition of growth at 25 ppm (Glomerella cingulata) | inhibition of growth at 25 ppm (Fusarium graminearum) | inhibition of growth at 25 ppm (Botrytis cinerea [1])

COC(=O)N(Cc1ccc(OC)cc1C)NC(=O)c1c(F)cncc1Oc1cccc(C2CC2)c1F [b-201]
≥ 75%: inhibition of growth at 25 ppm (Colletotrichum acutatum) | inhibition of growth at 25 ppm (Glomerella cingulata) | pest or weed control at 25 ppm (Botrytis cinerea [2]) | pest or weed control at 125 ppm (Botrytis cinerea [2]) | pest or weed control at 125 ppm [3] | pest or weed control at 125 ppm (Venturia inaequalis) | inhibition of growth at 25 ppm (Botrytis cinerea [1])

COC(=O)N(Cc1ccc(C)cc1C)NC(=O)c1c(Cl)cncc1Oc1cccc(C2CC2)c1F [b-205]
≥ 75%: inhibition of growth at 25 ppm (Colletotrichum acutatum) | inhibition of growth at 25 ppm (Glomerella cingulata) | pest or weed control at 125 ppm (Botrytis cinerea [2]) | pest or weed control at 125 ppm [3] | pest or weed control at 125 ppm (Venturia inaequalis) | inhibition of growth at 25 ppm (Botrytis cinerea [1])

COC(=O)N(Cc1ccc(OC)cc1C)NC(=O)c1c(Cl)cncc1Oc1cccc(C2CC2)c1F [b-206]
≥ 75%: inhibition of growth at 25 ppm (Colletotrichum acutatum) | inhibition of growth at 25 ppm (Glomerella cingulata) | pest or weed control at 25 ppm (Botrytis cinerea [2]) | pest or weed control at 125 ppm (Botrytis cinerea [2]) | pest or weed control at 125 ppm [3] | pest or weed control at 125 ppm (Venturia inaequalis) | inhibition of growth at 25 ppm (Botrytis cinerea [1])

COC(=O)N(Cc1ccc(C)cc1C)NC(=O)c1cc(C)nnc1Oc1cccc(Cl)n1 [b-215]
≥ 75%: inhibition of growth at 25 ppm (Colletotrichum acutatum) | inhibition of growth at 25 ppm (Glomerella cingulata) | inhibition of growth at 25 ppm (Fusarium graminearum) | inhibition of growth at 25 ppm (Botrytis cinerea [1])

C=C(OCC)c1cncc(Oc2cccc(C3CC3)c2F)c1C(=O)NN(Cc1ccc(C)cc1C)C(=O)OC [b-217]
≥ 75%: inhibition of growth at 25 ppm (Colletotrichum acutatum) | inhibition of growth at 25 ppm (Glomerella cingulata) | inhibition of growth at 25 ppm (Fusarium graminearum) | inhibition of growth at 25 ppm (Botrytis cinerea [1])

COC(=O)N(Cc1ccc(C)cc1C)/N=C(\OC)c1cc(C)nnc1Oc1cccc(Cl)c1F [b-220, Methyl (Z)-2-((3-(3-chloro-2-fluorophenoxy)-6-methylpyridazin-4-yl)(methoxy)methylene)-1-(2,4-dimethylbenzyl)hydrazine-1-carboxylate]
≥ 75%: inhibition of growth at 25 ppm (Colletotrichum acutatum) | inhibition of growth at 25 ppm (Glomerella cingulata) | pest or weed control at 125 ppm (Botrytis cinerea [2]) | pest or weed control at 125 ppm [3] | pest or weed control at 125 ppm (Venturia inaequalis) | inhibition of growth at 25 ppm (Botrytis cinerea [1])
